The source of these data is the NIST ThermoML archive (doi:10.1016/j.jct.2015.08.024).

Numbers after ± are expanded uncertainties.

The conditions of the data set: Liquid, Closed cell (Static) method.

As for `FC(F)CC(F)(F)F` [1,1,1,3,3-pentafluoropropane], the vapor or sublimation pressure (usually the pressure of vapour in equilibrium with the condensed phase) reads like this: (323.15 K) 344.4 ± 1.6 kPa; (333.15 K) 463.2 ± 1.9 kPa; (343.15 K) 609.8 ± 2.4 kPa; (353.15 K) 789.8 ± 2.9 kPa.

Take `CC(F)F` [1,1-difluoroethane]: the “vapor or sublimation pressure” value is reported as 1177.3 ± 3.7 kPa (323.15 K), 1500.6 ± 4.7 kPa (333.15 K), 1886.8 ± 5.9 kPa (343.15 K) and 2342.7 ± 7.3 kPa (353.15 K).
